The test deals with reconstructed human epithelium (RHE). As to the kind of experiment: Anti-pollution activity: MDA production (lipid peroxidation) in ozone-stressed reconstructed human epithelium. The format is cell-based. The conditions noted are these: Trolox 1 mg/mL. The text has this:
The objective of this study is to evaluate the antioxidant, detoxifying and ozone-protective activity of an agrimony extract, following exposure to ozone in a reconstructed human epithelium (RHE) mimicking the effect of pollution on the skin. Lipids playing a role in epidermal barrier function, such as free fatty acids, cholesterol, triglycerides and ceramides, can be impacted under stress conditions with increased oxidative lipid damage. Direct measurements of lipid peroxidation can be carried out by measuring malondialdehyde (MDA) by gas chromatography techniques combined with mass spectrometry. This compound is naturally present in tissues, where it is a manifestation of oxidative stress. It is derived in particular from the action of reactive oxygen derivatives on polyunsaturated fatty acids. Several conditions are realized in this study: • Negative control: non-stressed RHE; • Positive control: ozone-stressed RHE; • Test with an agrimony extract: ozone-stressed RHE is in contact with the extract (n=3), this test is performed with 3 different concentrations (1, 3 and 10 μg/mL); • Test with a reference compound: ozone-stressed RHE is in contact with the reference compound (Trolox). The agrimony extract is solubilized in water/DMSO, (80/20, v/v). The process is based on lipid oxidation from ozonolysis. […] A protection index is calculated from the stress and control conditions. […]

Each structure is given as a SMILES string.

`Cc1c(C)c2c(c(C)c1O)CCC(C)(C(=O)O)O2` (centres unmarked) [Trolox, 3,4-Dihydro-6-hydroxy-2,5,7,8-tetramethyl-2H-1-benzopyran-2-carboxylic acid]: the “PI (%) protection index” value was found to be 37.6%. In addition, under “listed as trolox”, the “PI (%) protection index” value is listed as 38%.

These data come from patent publication US20220226231A1, “AGRIMONY EXTRACT AS ANTI-POLLUTION AGENT” (PIERRE FABRE DERMO-COSMETIQUE, priority 2019, published 2022).
